{"source": "patent US20050165028A1", "about": "“Vanilloid receptor ligands and their use in treatments” (priority 2004, published 2005)"}
{"smiles": "O=C(Nc1ccc2c(c1)OCCO2)c1ccc(-c2cccs2)cc1", "note": "[Example 15, N-(2,3-Dihydro-benzo[1,4]dioxin-6-yl)-4-thiophen-2-yl-benzamide]", "values": [{"measurement": "melting point", "result": "192 to 195", "unit": "°C"}]}
